This data set is described as follows: gradient 5% acetonitrile 3 min, to 50% in 2 min, to 85% in 15 min, held 3 min, 100 µL/min. The following applies: column: Zorbax Extend-C18 2.1 x 50 mm; eluents: water / acetonitrile, 0.1% formic acid. The method, boiled down: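 The mobile phases were water and acetonitrile, each with 0.1% formic acid, pumped at 100 μL/min through a Zorbax Extend-C18 column (2.1 × 50 mm, 1.8 μm). Pure standards were injected as mixtures of ~100 molecules and detected by a quadrupole time-of-flight mass spectrometer in positive and negative ionization mode. Retention time came from computationally picked adduct peaks, each inspected by hand.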
Take `Cc1ccc(CNC(=O)c2nc(Nc3ccc(F)cc3)c3ccccc3n2)o1`: the RP-LC retention time was 784 s.
Take `COc1ccc(CNC2=NCCNC23CCN(S(=O)(=O)c2cc(C)c(C)cc2C)CC3)cc1`: the RP-LC retention time came out at 794 s.
As for `Cc1ccc(-n2ncc3c(N4CCN(CCO)CC4)ncnc32)cc1Cl`, the RP-LC retention time was found to be 651 s.
The molecule `COCC(=O)NC/C=C/c1ccc2ncnc(Nc3ccc(Oc4ccc(C)nc4)c(C)c3)c2c1` showed an RP-LC retention time of 622 s.
With `COc1ccccc1NC(=O)N1CCN(c2cc(C)nc(N3CCOCC3)n2)CC1` the figure was 618 s; with `CCOC(=O)c1ccccc1NC(=O)CSc1ccc(-c2ccco2)nn1`, 524 s.
With `O=C1NC2(CCN(C(=O)c3cccc(Cl)c3)CC2)N=C1c1cccc(F)c1` the figure was 888 s; with `Cc1ccc(CNS(=O)(=O)c2cc3n(c2)CCCNC3=O)cc1C`, 739 s; with `Cc1sc2ncnc(N3CCCC(C)C3)c2c1C(=O)Nc1cc(F)ccc1F` (centres undefined), 1220 s.
`CC1CCN(C(=O)c2cc3c(s2)CCC(C(=O)NCCCN2CCOCC2)C3)CC1` (centres undefined) came in with an RP-LC retention time of 542 s.
With `Cn1c(=O)c(NCc2cccc(C(F)(F)F)c2)nc2ccncc21` the figure was 658 s; with `CN1C(=O)CCc2cc(NC(=O)Cc3ccsc3)ccc21`, 709 s; with `COc1cccc(NC(=O)Cn2cnc3nc(N4CCC(C(=O)NC5CC5)CC4)sc3c2=O)c1`, 658 s.
With `COc1ccc(C(=O)Nc2cnc(N3CCCC3)nc2)cc1` the figure was 691 s; with `COc1ccc(OC)c(NC(=O)Cn2cnc3nc4c(cc3c2=O)CCCC4)c1`, 676 s.
`Cc1nn(CCCC(=O)N2CCOCC2)c(=O)c2c(-n3cccc3)n(-c3ccccc3)nc12` registered an RP-LC retention time of 788 s.
Regarding `Cc1cc(C(=O)N2CCCCC2)c2c(=O)n(Cc3nc(-c4ccccc4)oc3C)c(=O)n(C)c2n1`, the RP-LC retention time stood at 1020 s.
On to `COc1cc(-c2nnc(-c3ccc(C)c(S(=O)(=O)N4CCC(C)CC4)c3)o2)cc(OC)c1OC`, for which the RP-LC retention time was 1170 s.
For `Cc1c(C(=O)N2CCCC2)cnn1-c1cc(-c2nc(C3CC3)no2)ccn1` the value was 864 s.
For `CCCCN1C(=O)c2cc(S(=O)(=O)Nc3ccccc3C)ccc2Oc2cccnc21` the value was 1130 s; for `CCOC(=O)c1cccc(N2C=C(C(=O)N3CCCC3)S(=O)(=O)c3ccccc32)c1`, 802 s.
With `Cc1ccc(C(=O)N2[C@H]3CC[C@@H]2c2cnc(C)nc2C3)cn1` the figure was 562 s; with `O=C(c1ccc(F)c(Cl)c1)N1CCCC1c1nc(-c2ccccc2)no1` (centres undefined), 1040 s; with `Cc1ccc(CNC(=O)C2CCN(Cc3cn(C)c4ccc(Cl)cc34)CC2)cc1`, 733 s.
For the molecule `Cc1ccc(CN2CC(=O)N(c3cccc(C)c3)[C@@H]3CS(=O)(=O)C[C@@H]32)cc1`, the RP-LC retention time was 855 s.
With `COc1ccc(NS(=O)(=O)c2cc(-c3cc(C(F)(F)F)[nH]n3)sc2C)cc1Cl` the figure was 995 s; with `Cc1ccccc1Cn1nc(-c2nc(C(C)(C)C)no2)ccc1=O`, 1120 s.
With `CCn1c(=O)c2c(cc(C)n2C)n(CC(=O)Nc2ccc(C)c(F)c2)c1=O` the figure was 855 s; with `CC(C)Cn1cc(CCNC(=O)c2cccc(Br)c2)c2cccnc21`, 922 s; with `COc1ccccc1N1CCN(C(=O)c2sc3ncccc3c2-n2cccc2)CC1`, 963 s.
For `O=C(O)c1nnn(-c2cccc(F)c2)c1C(F)(F)F` the value was 744 s; for `COc1cccc(-n2nnc(-c3nsc(Nc4ccccc4)n3)c2C)c1`, 990 s; for `CC(C)NCC(O)COc1ccccc1-n1cccc1` (centres undefined), 701 s.
The molecule `O=C(NC1CCCCC1)c1ccc2ncnc(N3CCCCC3)c2c1` showed an RP-LC retention time of 658 s.
With `COc1cccc(NC(=O)C2CCc3nc(N4CCCCC4)ncc3C2)c1` (centres undefined) the figure was 782 s; with `Cc1nc(-c2csc(S(=O)(=O)N3CCCC(C(=O)Nc4ccc5c(c4)OCO5)C3)c2)no1` (centres undefined), 894 s.
With `CCN1C(=O)c2cccnc2Sc2cc(NC(=O)c3ccccc3OC)ccc21` the figure was 868 s.
With `Cc1cc2nn(CC(=O)N3CCC(C)CC3)c(=O)n2c(-c2cccc(Cl)c2)n1` the figure was 894 s.
`CCN1C(=O)COc2ccc(-c3nc(NC(=O)c4cccc(Cl)c4)sc3C)cc21` showed an RP-LC retention time of 1110 s.
Molecule `CCc1ccccc1NC(=O)C1CCN(S(C)(=O)=O)c2cc(C)ccc2O1` (centres undefined) had an RP-LC retention time of 880 s.
With `CC(C)CNC(=O)N1CC(c2nc(-c3ccccc3)no2)C2(CCOCC2)C1` (centres undefined) the figure was 858 s.
Consider `O=c1c2nc(-c3ccc(F)cc3)cn2ccn1-c1ccc(F)c(Cl)c1`, for which the RP-LC retention time turned out to be 888 s.
As to `Cc1cc(Cl)ccc1S(=O)(=O)N1CC(c2nc(Cc3ccccc3)no2)C1`, the RP-LC retention time came out at 1140 s.
With `CC(C)CN1C(=O)c2cccn2CC1C(=O)NCCCOC1CCN(C(C)C)CC1` (centres undefined) the figure was 598 s; with `CC1=C(c2ccc(C)c(C)c2)S(=O)(=O)N=C1N1CCCN(C(=O)c2ccccn2)CC1`, 771 s; with `Cc1ccc(NC(=O)C2CCN(S(=O)(=O)c3ccc4c(c3)NC(=O)C(C)O4)CC2)c(Cl)c1` (centres undefined), 812 s.
As to `Cc1nnc2c(=O)n(CC(=O)N3CCN(C4CCCCC4)CC3)c3cccnc3n12`, the RP-LC retention time came to 587 s.
For `CCC(c1cccs1)N1C(=O)[C@H]2CN(S(=O)(=O)c3cccc(C)c3)C[C@H]2C1=O` (some centres undefined) the value was 1040 s; for `Cc1nnc(CNC(=O)CCn2nnc3ccccc3c2=O)o1`, 566 s.
With `Cn1ccc2cc(CCC(=O)NCc3ccncc3)ccc21` the figure was 596 s; with `NC(=O)C1(c2ccccc2F)CC1`, 681 s.
`CCCCCc1cc(O)c2c(c1)OC(C)(C)[C@@H]1CCC(C(=O)O)=CC21` (some centres undefined) returned an RP-LC retention time of 1130 s.
For `CCc1ccc(NC(=O)Cn2nc(C(=O)N3CCOCC3)c3ccccc32)cc1` the value was 822 s; for `COc1ccc(-c2cc(NS(=O)(=O)c3cnc[nH]3)n(C3CCS(=O)(=O)C3)n2)cc1` (centres undefined), 649 s.
With `CCCC1c2nccn2CCCN1C(=O)c1c(C)noc1C` (centres undefined) the figure was 576 s; with `CC1CCCN(c2ccc(-c3noc(CN(C)C4CCCCC4)n3)cn2)C1` (centres undefined), 721 s; with `Cc1cc(C)c(C(=O)N2CCC(CC(=O)NCCCN3CCN(C)CC3)CC2)[nH]1`, 566 s.
With `CCOC(=O)c1cc(S(=O)(=O)N(C)CC(=O)N2CCN(c3ccccn3)CC2)cn1C` the figure was 614 s; with `O=C(Cn1cccc1-c1nc(-c2ccc3c(c2)OCO3)no1)Nc1cc(F)ccc1Cl`, 1110 s.
`COc1ccc(N2CCN(c3cc(SCC(=O)NCC4CCCO4)ncn3)CC2)cc1` (centres undefined) yielded an RP-LC retention time of 713 s.
For `CC1CCN(c2nc(C(=O)NCc3ccccn3)nc3c2cnn3C)CC1` the value was 660 s; for `CCc1nc(-c2csc(S(=O)(=O)N3CCCC(C(=O)NC4CCCC4)C3)c2)no1` (centres undefined), 937 s; for `COc1ccccc1N1CCN(c2ncccc2-c2nc(-c3ccc(Cl)cc3)no2)CC1`, 1320 s.
For `COc1ccc(C(=O)N2CCC3(C2)C(=O)Nc2ccccc23)c(OC)c1` (centres undefined) the value was 655 s; for `CC1(C)CC(=O)c2cn(-c3ccc(Cl)cc3)c(=O)c(C(=O)N3CCOCC3)c2C1`, 757 s; for `COc1ccc(-c2noc(CN3CCN(c4ccccc4)CC3)n2)cc1OC`, 846 s.
For `CC(C)c1cc(C2CCCN2C(=O)c2ccc3c(c2)OCO3)on1` (centres undefined) the value was 824 s.
Regarding `CNC(=O)N1CCCC(c2cccc(C(=O)NCc3ccccc3C(F)(F)F)c2)C1` (centres undefined), the RP-LC retention time came out at 838 s.
For `CCCNC(=O)C1CCCN(c2ccc(SCC(=O)Nc3ccc(C)c(Cl)c3)nn2)C1` (centres undefined) the value was 748 s; for `CC(C)C(=O)Nc1ccc(-n2cnc(C(=O)NCC3CCCO3)c2)nc1` (centres undefined), 647 s; for `COc1ccccc1CCC(=O)N1CCCn2nc(-c3ccc(C)cc3)cc2C1`, 1020 s.
With `CC(C)c1ccc(S(=O)(=O)N2CCC(c3cc(N)on3)CC2)cc1` the figure was 902 s; with `CCC(=O)N(C1CCOCC1)C1CCN(S(=O)(=O)c2ccc(F)c(C)c2)CC1`, 836 s.
For `CCCn1ncc(N2CCC(C(=O)NCC3CCCO3)CC2)cc1=O` (centres undefined), the RP-LC retention time was 608 s.
For `O=C(CSc1ncnc2c1[nH]c1ccccc12)N1CCc2ccccc2C1` the value was 842 s; for `O=C(C1CCCN(c2cnc3nccnc3c2)C1)N1CCC(Cc2ccccc2)CC1` (centres undefined), 892 s; for `CCCN1C(=O)C(CC(=O)NCC2CC2)Sc2ncccc21` (centres undefined), 697 s.
In turn, `Cc1noc(C2CN(C(=O)Nc3ccc(Cl)cc3C)CC23CCOCC3)n1` (centres undefined) registered an RP-LC retention time of 792 s.
With `CN(C)S(=O)(=O)c1ccc(-c2nnc(C(=O)N3CCC4(CC3)OCCO4)o2)cc1` the figure was 746 s.
